Measurements reported in patent publication US5473083A, “Reduced and quaternized psoralens as photo-activated therapeutics” (Lehigh University, priority 1994, dated 1995).
Where a name gives a salt, the structure may show the parent alone.

What follows are molecules tested on epidermal growth factor receptor (HeLa cells) (assay: Epidermal growth factor binding inhibition assay: 125I-EGF binding to HeLa cells after treatment with phototherapeutic and UVA). Details: cells pulsed with 2.1 J/cm^2 of ultraviolet light (UVA, 320-400 nm) after treatment, 2 nM 125I-EGF, 2 h at 4° C., read-out: IC50, concentration of each compound inhibiting 125I-EGF binding to HeLa cells by 50%.
Type: cell-based, human
From the text: The primary in vitro screen for the phototherapeutics described herein is based on our discovery that beneficial phototherapeutics inhibit binding in cells of epithelial origin with epidermal growth factor (EGF). Furthermore, the degree of effective competition in this EGF binding assay relates to the phototherapeutic effect of the test agent. [J. Laskin, E. Lee, D. Laskin, M. Gallo, Proc. Nat. Acad. Sci. (U.S.A.) 83:8211 (1986)].
Inhibition of EGF binding is dependent on dose of the phototherapeutic and on the quanta of light in the 320-400 nm wavelength (ultraviolet light A). It is also structure-dependent, that is, there is a direct correlation between those specific phototherapeutics currently used that are clinically active and their ability to inhibit the binding of epidermal growth factor to its receptor.
The ability of the above compounds in the presence of ultraviolet light, to inhibit epidermal growth factor binding to its cell surface receptor is directly related to its phototherapeutic potential. To assay these compounds for this biological activity, human cells (HeLa) grown in vitro were used. Cells (1.8×10^4 /cm^2) were inoculated into 5 cm culture dishes in growth medium consisting of Dulbecco's modified Eagle's medium supplemented with 10% newborn calf serum. After 4-5 days at 37° C. in a humidified CO2 incubator, the cells were washed three times with 2 ml of phosphate buffered saline and then incubated with the different phototherapeutics in 2 ml of Earle's salt solution supplemented with 5.2 mM D-glucose/25 mM Hepes buffer, pH 7.2. Control cultures were incubated in 2 ml of Earle's salt solution in the absence of the test drugs. After 30 minutes, the cells were then exposed to ultraviolet light (UVA, 320-400 nm) emitted from a bank of four BLB fluorescent light tubes (F40BL/Sylvania) placed approximately 10 cm above the cell culture plates. The incident light delivered onto the culture plates was 3.4 mW per cm^2 as measured with an International Light UV-Radiometer and the cells received 2.1 J/cm^2 of UVA light. After this light exposure, the cells were rinsed with phosphate buffered saline and submitted for assay of epidermal growth factor binding. Phototherapeutic treated cells were then incubated for 2 hours at 4° C. with 2 ml of binding buffer (Dulbecco's modified Eagle's medium/25 mM Hepes buffer, pH 7.2) containing 2 nM labeled epidermal growth factor (^125 I-EGF, specific activity 200 Ci/g).
Nonspecific binding was determined by incubating separate plates of cells with buffer containing the radioligand and excess unlabeled epidermal growth factor (1 microgram/ml). The binding reaction of the radioligand to the cells was terminated by aspirating the binding buffer from the culture dishes and washing the cells four times with ice cold phosphate buffered saline. The cells were then solubilized with 2 ml of 0.2M NaOH and duplicate 0.5 ml aliquots were taken for gamma counting. Specific binding of epidermal growth factor to its receptor was calculated by subtracting nonspecifically bound material from the total. Under the conditions of the assay, specific epidermal growth factor receptor binding represented greater than 80% of the total bound to the cells.
As a specific example of this assay, HeLa cells were treated with 4',5'-dihydropsoralen, followed by ultraviolet light exposure and then by measurement for epidermal growth factor binding. The data can be presented as a curve of epidermal growth factor receptor binding to the cells as a percentage of untreated cells. FIG. 1 is an example of 125-I EGF binding inhibition of 4',5'-dihydropsoralen and UVA. The concentration inhibiting epidermal growth factor binding to the cells by 50% (the IC50 value) is determined from the curve.
*IC50, concentration of each compound inhibiting 125I-EGF binding to
**Following treatment of the cells with the phototherapeutic they were
***Highest concentration tested

`Cc1oc2c(C)c3oc(=O)cc(C)c3cc2c1C[N+](C)(C)C` [4'-[(N,N,N,-trimethylannonium)methyl]-4,5',8-trimethylpsoralen iodide salt] and `Cc1cc(=O)oc2c(C)c3c(cc12)CC(C)O3` (stereo not drawn) [4,5',8-trimethyl-4',5'-dihydropsoralen] are within 1.5-fold of each other in IC50: 5 µM for the first, 7 µM for the second.

Work on `O=c1ccc2ccccc2o1` [coumarin, reference compound] yielded an IC50 of over 100 µM.

Same assay, conditions: read-out: IC50, concentration of each compound inhibiting 125I-EGF binding to HeLa cells by 50%, cells pulsed with 2.1 J/cm^2 of ultraviolet light (UVA, 320-400 nm) after treatment, 2 nM 125I-EGF, 2 h at 4° C.

First: CCOC(=O)c1cc2cc3c(cc2oc1=O)OCC3 [3-carboethoxy-4',5'-dihydropsoralen]
Second: O=c1ccc2cc3c(cc2o1)OCC3 [4',5'-dihydropsoralen]
The IC50 of the first is 2.2-fold lower: 4.9 µM for the first, 11 µM for the second.

Compared with `Cc1c([N+](=O)[O-])c(=O)oc2c(C)c3c(cc12)CC(C)O3` (stereo not drawn) [3-nitro-4,5',8-trimethyl-4',5'-dihydropsoralen], `Cc1cc2cc3c(C)cc(=O)oc3c(C)c2o1` [4,5',8-trimethylpsoralen, reference compound] is 3.6-fold lower in IC50: 24 µM for the first, 6.6 µM for the second.

Compared with `Cc1cc(=O)oc2c(C)c3oc(CBr)c(Br)c3cc12` [4'-Bromo-5'-bromomethyl-4,8-dimethylpsoralen], `Cc1cc(=O)oc2c(C)c3oc(CBr)cc3cc12` [5'-bromomethyl-4,8-dinethylpsoralen, 5'-Bromomethyl-4,8-dimethylpsoralen] is 2.4-fold lower in IC50: 3.6 µM for the first, 1.5 µM for the second. The second is the more potent here.

First: Cc1cc(=O)oc2c(C)c3oc(C[n+]4ccccc4)cc3cc12 [5'-[(N-Pyridinium)methyl]-4,8-dimethylpsoralen Bromide Salt]
Second: COc1c2ccoc2cc2oc(=O)ccc12 [5-methoxypsoralen (5-MOP), 5-methoxypsoralen, reference compound]
The IC50 of the first is 2.2-fold lower: 0.74 µM for the first, 1.6 µM for the second.

`COc1c2c(cc3oc(=O)ccc13)OCC2` [5-methoxy-4',5'-dihydropsoralen] gave an IC50 of 2.8 µM.
